Data: US10494397B2, “Rebaudioside analogs” (PepsiCo, Inc., priority 2016, dated 2019)

Assays:
Type in all cases: in vivo, human
Tasters = assay: Sensory evaluation of test material as a sweetener (taster panel, scale of 1 to 10); set-up: key: not observed or only minimally observed (−); highly observed (+++)
Description: Sample preparation protocol for testing material as a sweetener: Tasters wore noseclips and were blinded to the identity of the test material. Tasters sampled 400 ppm Rebaudioside A and 6.5 Brix sucrose prior to the test material. Reb A 400 ppm was assigned a 5 on the scale of 1 to 10 as shown in FIG. 8 and sucrose (6.5%) was assigned a 10 on the same scale. Tasters were asked to rinse their mouths 5 times with water between tasting each sample. Tasters were then given the test article and asked to rank the test article for sweetness on the noted scale. Tasters were also asked to provide comments about bitterness, linger, flavors, and any other perceptions.
Numerical scores from all tasters were averaged and, taken together with comments regarding sweet quality, bitterness and off-tastes, converted into the symbols “−,” “+,” “++,” and “+++” to indicate whether a given characteristic was not observed or only minimally observed (−) or highly observed (+++). For example, a sample having a “−” in both sweet intensity and bitterness should be understood as a sample having minimal or no sweetness and minimal or no bitter flavor. By contrast, a sample having a “+++” in both sweet intensity and bitterness should be understood as a sample having highly observed sweet intensity and bitterness.
Preparation of Reb A in this experiment: Prepare 400 ppm Reb A in water (pH=7): 40 mg of Rebaudioside A was dissolved with stirring in 100 ml of water at room temperature.
Preparation of Sucrose in this experiment: Prepare 6.5% Sucrose in water (pH=7): weight 6.5 gr of Sucrose and dissolve it in 93.5 gr water (total 100 gr)
• Sweet quality was based upon a temporal profile (sweet onset, linger) and attributes such as syrupy, round, clean.

[1] = tested on: Trained Sensory panelists; assay: Sweet enhancement ranking test (4 samples ranked from least sweet to most sweet)
Description: (§1) Trained Sensory panelists (n=25, 3 evaluations each) evaluated Reb B Galactoside in aqueous phosphoric acid (pH 3.1) at room temperature. Rebaudioside B galactoside is not currently approved for use in food or beverages in the United States. Therefore, every person who tasted the samples signed an informed consent form provided by PepsiCo Scientific Affairs before tasting samples. Participation in the tests was completely voluntary. Panelists who chose to participate could choose to stop participation at any time. Panelists were asked to rank 4 samples from least sweet to most sweet, with 1=least sweet and 4=most sweet As shown in FIGS. 1-3, Enhancement of Reb A, high-fructose corn syrup and sucrose were observed.

[2] = tested on: Trained Sensory panelists; assay: Sucrose Equivalence Value, paired comparison with 1.5% sucrose; conditions: 25 ppm in aqueous phosphoric acid (pH 3.1), room temperature; p<0.0001
Description: as §1, with “In order for a test ingredient” for “Panelists were asked”, “be considered an enhancer, it must not be considered a sweetener.” for “rank 4 samples from least sweet to most sweet, with 1=least sweet and 4=most sweet As shown in FIGS. 1-3, Enhancement of Reb A, high-fructose corn syrup and sucrose were observed.”

With `C=C1C[C@@]23CC[C@H]4[C@@](C)(CCC[C@@]4(C)C(=O)O[C@@H]4O[C@H](CO)[C@H](O)[C@H](O)[C@H]4O)[C@@H]2CC[C@]1(O[C@@H]1O[C@H](CO)[C@@H](O)[C@H](O[C@@H]2O[C@H](CO)[C@@H](O)[C@H](O)[C@H]2O)[C@H]1O[C@@H]1O[C@H](CO)[C@@H](O)[C@H](O)[C@H]1O)C3` [Compound 7D, Rebaudioside B Galactoside] the “Sweet Intensity” value (Tasters; averaged taster scores, scale 1 to 10 with Reb A 400 ppm = 5 and sucrose 6.5% = 10, noseclips, blinded) was “+++”, the Bitterness (Tasters; taster comments and scores converted into symbols) was “−” and the “Enhancement of sweetness of High-Fructose Corn Syrup (HFCS)” value ([1]; 25 ppm added to HFCS, FIG. 2) was “enhances the sweetness”. The “Enhancement of sweetness of Rebaudioside A” value ([1]; 25 ppm added to Rebaudioside A, FIG. 1) was “enhances the sweetness”, the “Enhancement of sweetness of sucrose” value ([1]; 25 ppm added to sucrose, FIG. 3) was “enhances the sweetness” and the “Sucrose Equivalence Value (sweetness compared with 1.5% sucrose)” value [2] was less than 1.5 % sucrose.
